# In article PMC12442081, “Combating Fuel Biocontamination: Tailored Antimicrobial Peptides and an Innovative Delivery Strategy” (ACS Applied Bio Materials, 2025):
# Where no end group is shown, it is not given here.
# What was measured:
# [1] = test system: Kocuria rosea (KR) ATCC 186; assay type: cell-based
# Summary of the method: (§1)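 Overnight LB cultures, 37 °C → mid-log → 5 × 10^5 CFU/mL; 1:1 with serially diluted peptides, o/n 37 °C, ambient air. MIC = lowest conc. inhibiting growth (plate reader). n = 3, mean reported.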
# [2] = test system: Pseudomonas aeruginosa (PA) ATCC 39327; assay type: cell-based; conditions: ATCC 39327
# Summary of the method: as §1
# [3] = test system: Roseomonas mucosa (RM) ATCC BAA-692; assay type: cell-based
# Summary of the method: as §1
# [4] = test system: Dermacoccus nishinomiyaensis (DN) ATCC 29093; assay type: cell-based
# Summary of the method: as §1
# [5] = test system: Bacillus licheniformis (BL) ATCC 14580; assay type: cell-based; conditions: ATCC 14580
# Summary of the method: as §1
# [6] = test system: Micrococcus yunnanensis (MY) ATCC 12698; assay type: cell-based
# Summary of the method: as §1
# [7] = test system: Sphingomonas paucimobilis (SP); assay type: cell-based
# Summary of the method: as §1
# [8] = test system: Macrococcus caseolyticus (MC) ATCC 13548; assay type: cell-based
# Summary of the method: as §1
# [9] = test system: Sheep red blood cells (RBCs); experiment: Hemolysis assay; assay type: cell-based
# Method: The RBCs were centrifuged at 1000g for 15 min at 4 °C to remove the buffy coat and washed 3 times with PBS. 100 μL of 4% (v/v) RBC was suspended in PBS and added into sterilized 96-well plates. 100 μL of peptide solution was added to the suspension of RBCs by serial dilution starting from 200 μM to […] and incubated overnight at 37 °C. Sample absorbance at 545 nm was measured to determine hemoglobin release after centrifuging the plate at 600 g for 10 min. The percentage of cell lysis was calculated using the following formula (eq ). , 1 %lysis=OD545(test)−OD545(blank)/OD545(totallysis)−OD545(blank)×100
# [10] = HPLC retention time as a function of peptide hydrophobicity; assay type: physicochemical; conditions: chromatographic, Polaris 5 C18-A reverse phase, 0.1% TFA water / 0.1% TFA acetonitrile gradient, 30 min, 300 μM peptide
# Summary of the method: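 Reverse-phase C18 HPLC used water and acetonitrile, each with 0.1% (v/v) TFA, under a constant gradient run for 30 min after injection. Samples were 300 μM peptide in acetonitrile–water (1:4).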
# [11] = test system: microbial clusters MY, KR, DN, MC, BL, RM, SP, PA, HR; experiment: Broad-spectrum activity score (in-house scoring matrix); conditions: sum over 9 microbial clusters: (+) = 1, (X) = 0, Fuel x = -1
# Summary of the method: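 Each peptide is scored per microbial cluster from its MIC/efficacy with fuel co-incubation: +1 = active in the fuel environment, 0 = no activity in the desired range (microbial proliferation), −1 = no activity in the fuel environment. The score is built from these per-cluster points.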
# Hormoconis resinae (HR) = experiment: Effectiveness of peptides on spiked fuel samples (aqueous layer); assay type: cell-based; design: key: (+) =1 (implying peptide activity in fuel environment); (X) = 0 (implying no activity in the desired range, indicated by microbial proliferation); Fuel x = -1(implying no activity in fuel environment); conditions: initial screening in spiked fuel
# Summary of the method: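 Viability read-out: aqueous- and fuel-layer aliquots plated on agar at days 7, 14, 21, 30. Setup: sterile fuel/BH medium 1:1 (v/v), inoculum in aqueous phase, peptide dosed at MIC into aqueous layer, aerobic 30 °C, 30 d.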
# Kocuria rosea (KR) = experiment: as above; assay type: cell-based; design: key: (+) =1 (implying peptide activity in fuel environment); (X) = 0 (implying no activity in the desired range, indicated by microbial proliferation); Fuel x = -1(implying no activity in fuel environment); conditions: initial screening in spiked fuel
# Summary of the method: (§2)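 Fuel:BH 1:1 v/v, cells seeded in bottom aqueous phase; peptide at MIC added to aqueous layer; aerobic, 30 °C, 30 d; plating of aqueous + fuel layers d7/14/21/30 for viable counts.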
# [12] = test system: Bacillus licheniformis (BL); experiment: as above; assay type: cell-based; design: key: (+) =1 (implying peptide activity in fuel environment); (X) = 0 (implying no activity in the desired range, indicated by microbial proliferation); Fuel x = -1(implying no activity in fuel environment); conditions: initial screening in spiked fuel
# Summary of the method: as §2
# [13] = test system: Macrococcus caseolyticus (MC); experiment: as above; assay type: cell-based; design: key: (+) =1 (implying peptide activity in fuel environment); (X) = 0 (implying no activity in the desired range, indicated by microbial proliferation); Fuel x = -1(implying no activity in fuel environment); conditions: initial screening in spiked fuel
# Summary of the method: as §2
# Roseomonas mucosa (RM) = experiment: as above; assay type: cell-based; design: key: (+) =1 (implying peptide activity in fuel environment); (X) = 0 (implying no activity in the desired range, indicated by microbial proliferation); Fuel x = -1(implying no activity in fuel environment); conditions: initial screening in spiked fuel
# Summary of the method: as §2
# [14] = test system: Micrococcus yunnanensis (MY); experiment: as above; assay type: cell-based; design: key: (+) =1 (implying peptide activity in fuel environment); (X) = 0 (implying no activity in the desired range, indicated by microbial proliferation); Fuel x = -1(implying no activity in fuel environment); conditions: initial screening in spiked fuel
# Summary of the method: as §2
# [15] = test system: Pseudomonas aeruginosa (PA); experiment: as above; assay type: cell-based; design: key: (+) =1 (implying peptide activity in fuel environment); (X) = 0 (implying no activity in the desired range, indicated by microbial proliferation); Fuel x = -1(implying no activity in fuel environment); conditions: initial screening in spiked fuel
# Summary of the method: as §2
# [16] = test system: Sphingomonas paucimobilis (SP); experiment: as above; assay type: cell-based; design: key: (+) =1 (implying peptide activity in fuel environment); (X) = 0 (implying no activity in the desired range, indicated by microbial proliferation); Fuel x = -1(implying no activity in fuel environment); conditions: initial screening in spiked fuel
# Summary of the method: as §2
# [17] = test system: Dermacoccus nishinomiyaensis (DN); experiment: as above; assay type: cell-based; design: key: (+) =1 (implying peptide activity in fuel environment); (X) = 0 (implying no activity in the desired range, indicated by microbial proliferation); Fuel x = -1(implying no activity in fuel environment); conditions: initial screening in spiked fuel
# Summary of the method: as §2
sequence,measurement,setting,value
ILPWKWPWWPFRR [P4],MIC,[1],0.9 µM
same,MIC,[2],7.8 µM
same,MIC,[3],3.9 µM
same,MIC,[4],0.9 µM
same,MIC,[5],0.9 µM
same,MIC,[6],0.9 µM
same,MIC,[7],0.9 µM
same,MIC,[8],0.9 µM
same,"HL50, conc. to reach 50% cell lysis",[9],10 µM
same,"R t, retention time of peptide on HPLC column as a function of peptide hydrophobicity",[10],12.891 min
same,Score,[11],7
same,activity considering MIC value/efficacy upon fuel co-incubation,Hormoconis resinae (HR),X
same,activity considering MIC value/efficacy upon fuel co-incubation,Kocuria rosea (KR),+
same,activity considering MIC value/efficacy upon fuel co-incubation,[12],+
same,activity considering MIC value/efficacy upon fuel co-incubation,[13],+
same,activity considering MIC value/efficacy upon fuel co-incubation,Roseomonas mucosa (RM),+
same,activity considering MIC value/efficacy upon fuel co-incubation,[14],+
same,activity considering MIC value/efficacy upon fuel co-incubation,[15],X
same,activity considering MIC value/efficacy upon fuel co-incubation,[16],+
same,activity considering MIC value/efficacy upon fuel co-incubation,[17],+
